Assay results taken from patent publication US12049439B2 (OrsoBio, Inc., priority 2018, dated 2024).
pEC50: −log10 of the molar value.

System: PC-3 cells
Test: PC-3 Oxygen Rate Consumption (OCR) Assay
Format: cell-based
Settings: Homo sapiens, 0.05 h, medium with 2% FBS, OCR at 3-min post-injection normalized to % increase over DMSO-treated cells, concentration for half-maximal OCR increase, read-out: EC50-PC3-OCR-FBS-3min
Method: PC-3 Oxygen Rate Consumption (OCR) Assay Procedure:
One day before the assay, PC-3 cells were seeded at 2.5×10^4 cells/160 μL/well in a 96-well XFe96 cell plate, part of a FlexPak containing a cell plate and a cartridge (Agilent, Sunnyvale, CA). The cells were incubated overnight at 37° C. in a 5% CO2 and 90% humidity incubator with F12K culture medium (ThermoFisher Scientific/Invitrogen, Grand Island, NY) containing 10% FBS and 1% penicillin/streptomycin. On the day of the assay, the cells were washed twice with 300 µL/well Medium A [XF assay medium (Agilent) supplemented 10 mM glucose, 1 mM pyruvate, and 2% fetal bovine serum (FBS)], and incubated with 175 µL/well Media A for 1 hr in a 37° C., non-CO2 incubator prior to the measurement of cellular respiration. Compounds of interests were prepared in 1:2 serial dilutions with 100% DMSO and then further diluted into 8× working stock with Media A prior to being loaded to Injection Port A on a XFe96 Analyzer (Agilent). Six replicates were used for each treatment. The cartridge was calibrated in the XFe96 Analyzer 30 minute prior to the measurement of cellular respiration. Basal levels of OCR were measured three times, each using a “3-minute mixing/3-minute measurement” program. The compound effect was measured immediately after compound injection from Injection Port A, and OCR was monitored continuously 10 times, each time using a “1-minute mixing/2-minute measurement” program for a total of 30 minutes post compound injection. The level of OCR at 3-min post-injection was normalized to % increase over DMSO-treated cells. The concentration of compound required to reach the half-maximal OCR increase was defined as EC50 Table 2 contains PC3 OCR EC50 values for the compounds disclosed.

Structure (SMILES) | pEC50
CS(=O)(=O)CCOc1ccc(S(=O)(=O)Nc2cc(C(F)(F)F)ccc2C(=O)NC23CC(C(F)(F)F)(C2)C3)cc1 [Example 115, 2-((4-(2-(methylsulfonyl)ethoxy)phenyl)sulfonamido)-4-(trifluoromethyl)-N-(3-(trifluoromethyl)bicyclo[1.1.1]pentan-1-yl)benzamide] | 4.90
CC(C)(C)c1ccc(C(=O)NC23CC(c4ccccc4)(C2)C3)c(NS(=O)(=O)c2ccc(S(C)(=O)=O)cc2)c1 [Example 15, 4-(tert-butyl)-2-((4-(methylsulfonyl)phenyl)sulfonamido)-N-(3-phenylbicyclo[1.1.1]pentan-1-yl)benzamide] | 4.96
CS(=O)(=O)Nc1cc(Br)ccc1C(=O)NC12CC(c3ccccc3)(C1)C2 [Example 49, 4-bromo-2-(methylsulfonamido)-N-(3-phenylbicyclo[1.1.1]pentan-1-yl)benzamide] | 5.30
O=C(NC12CC(C(F)(F)F)(C1)C2)c1ccccc1NS(=O)(=O)c1ccc(Cl)cc1Cl [Example 141, 2-((2,4-dichlorophenyl)sulfonamido)-N-(3-(trifluoromethyl)bicyclo[1.1.1]pentan-1-yl)benzamide] | 5.93
O=C(NC12CCC(C(F)(F)F)(CC1)CC2)c1ccc(OC(F)(F)F)cc1NS(=O)(=O)C1CCS(=O)(=O)CC1 [Example 240, 2-((1,1-dioxidotetrahydro-2H-thiopyran)-4-sulfonamido)-4-(trifluoromethoxy)-N-(4-(trifluoromethyl)bicyclo[2.2.2]octan-1-yl)benzamide] | 5.52
CS(=O)(=O)Nc1cc(C(F)(F)F)ccc1C(=O)NC12CCC(C#N)(CC1)CC2 [Example 168, N-(4-cyanobicyclo[2.2.2]octan-1-yl)-2-(methylsulfonamido)-4-(trifluoromethyl)benzamide] | 4.82
O=C(NC12CC(C(F)(F)F)(C1)C2)c1ccccc1NS(=O)(=O)C(F)(F)F [Example 144, N-(3-(trifluoromethyl)bicyclo[1.1.1]pentan-1-yl)-2-((trifluoromethyl)sulfonamido)benzamide] | 4.73
Cc1ncsc1CCS(=O)(=O)Nc1ccc(C(F)(F)F)cc1C(=O)NC12CCC(C#N)(CC1)CC2 [Example 200, N-(4-cyanobicyclo[2.2.2]octan-1-yl)-2-((2-(4-methylthiazol-5-yl)ethyl)sulfonamido)-5-(trifluoromethyl)benzamide] | 5.29
CS(=O)(=O)c1ccc(S(=O)(=O)Nc2cc(C(F)(F)F)ccc2C(=O)NC23CCC(CC2)C3)cc1 [Example 45, N-(bicyclo[2.2.1]heptan-1-yl)-2-((4-(methylsulfonyl)phenyl)sulfonamido)-4-(trifluoromethyl)benzamide] | 5.26
O=C(NC12CC(C(F)(F)F)(C1)C2)c1ccc(F)cc1NS(=O)(=O)c1ccc(S(=O)(=O)C2CC2)cc1 [Example 28, 2-((4-(cyclopropylsulfonyl)phenyl)sulfonamido)-4-fluoro-N-(3-(trifluoromethyl)bicyclo[1.1.1]pentan-1-yl)benzamide] | 5.56
CS(=O)(=O)Nc1ccc(SC(F)(F)F)cc1C(=O)NC12CCC(C#N)(CC1)CC2 [Example 235, N-(4-cyanobicyclo[2.2.2]octan-1-yl)-2-(methylsulfonamido)-5-((trifluoromethyl)thio)benzamide] | 5.34
CS(=O)(=O)c1ccc(S(=O)(=O)Nc2cc(Cl)c(Cl)cc2C(=O)NC23CC(C(F)(F)F)(C2)C3)cc1 [Example 92, 4,5-dichloro-2-((4-(methylsulfonyl)phenyl)sulfonamido)-N-(3-(trifluoromethyl)bicyclo[1.1.1]pentan-1-yl)benzamide] | 5.09
CCP(=O)(CC)c1ccc(S(=O)(=O)Nc2cc(C(F)(F)F)ccc2C(=O)NC23CC4CC(CC(C#N)(C4)C2)C3)cc1 [Example 181] | 3.94
N#CC1CC2(C1)CN(S(=O)(=O)Nc1cc(F)c(F)cc1C(=O)NC13CC(C(F)(F)F)(C1)C3)C2 [Example 232, 2-((6-cyano-2-azaspiro[3.3]heptane)-2-sulfonamido)-4,5-difluoro-N-(3-(trifluoromethyl)bicyclo[1.1.1]pentan-1-yl)benzamide] | 5.25
N#CC12CC(NC(=O)c3ccc(C(F)(F)F)cc3NS(=O)(=O)c3c(Cl)cc(Cl)cc3Cl)(C1)C2 [Example 40, N-(3-cyanobicyclo[1.1.1]pentan-1-yl)-2-((2,4,6-trichlorophenyl)sulfonamido)-4-(trifluoromethyl)benzamide] | 5.18
N#CC12CCC(NC(=O)c3ccc(SC(F)(F)F)cc3NS(=O)(=O)C3(C#N)CC3)(CC1)CC2 [Example 226, N-(4-cyanobicyclo[2.2.2]octan-1-yl)-2-((1-cyanocyclopropane)-1-sulfonamido)-4-((trifluoromethyl)thio)benzamide] | 5.15
CS(=O)(=O)Nc1ccc(C(F)(F)F)cc1C(=O)NC12CCC(C#N)(CC1)CC2 [Example 105, N-(4-cyanobicyclo[2.2.2]octan-1-yl)-2-(methylsulfonamido)-5-(trifluoromethyl)benzamide] | 4.64
N#CC12CCC(NC(=O)c3cc(C(F)(F)F)ccc3NS(=O)(=O)N3CCC3)(CC1)CC2 [Example 179, 2-(azetidine-1-sulfonamido)-N-(4-cyanobicyclo[2.2.2]octan-1-yl)-5-(trifluoromethyl)benzamide] | 5.05
N#Cc1ccc(S(=O)(=O)Nc2cc(C(F)(F)F)ccc2C(=O)NC23CC(c4ccccc4)(C2)C3)cc1 [Example 160, 2-((4-cyanophenyl)sulfonamido)-N-(3-phenylbicyclo[1.1.1]pentan-1-yl)-4-(trifluoromethyl)benzamide] | 6.20
O=C(NC12CCC(C(F)(F)F)(CC1)CC2)c1ccc(Cl)cc1NS(=O)(=O)C1CCS(=O)(=O)CC1 [Example 241, 4-chloro-2-((1,1-dioxidotetrahydro-2H-thiopyran)-4-sulfonamido)-N-(4-(trifluoromethyl)bicyclo[2.2.2]octan-1-yl)benzamide] | 5.19
O=C(NC12CCC(C(F)(F)F)(CC1)CC2)c1cc(C(F)(F)F)ccc1NS(=O)(=O)C1CCS(=O)(=O)CC1 [Example 239, 2-((1,1-dioxidotetrahydro-2H-thiopyran)-4-sulfonamido)-5-(trifluoromethyl)-N-(4-(trifluoromethyl)bicyclo[2.2.2]octan-1-yl)benzamide] | 5.11
CS(=O)(=O)Nc1cc(SC(F)(F)F)ccc1C(=O)NC12CCC(C#N)(CC1)CC2 [Example 202, N-(4-cyanobicyclo[2.2.2]octan-1-yl)-2-(methylsulfonamido)-4-((trifluoromethyl)thio)benzamide] | 5.03
O=C(NC12CC(C(F)(F)F)(C1)C2)c1cc(C(F)(F)F)ccc1NS(=O)(=O)C1CCS(=O)(=O)CC1 [Example 162, 2-((1,1-dioxidotetrahydro-2H-thiopyran)-4-sulfonamido)-5-(trifluoromethyl)-N-(3-(trifluoromethyl)bicyclo[1.1.1]pentan-1-yl)benzamide] | 4.47
CC(C)(C)S(=O)(=O)Nc1ccc(C#N)cc1C(=O)NC12CCC(C#N)(CC1)CC2 [Example 123, 5-cyano-N-(4-cyanobicyclo[2.2.2]octan-1-yl)-2-((1,1-dimethylethyl)sulfonamido)benzamide] | 5.32
